A short description of experiment [1]: Binding affinity of synthetic constrained peptides to Texas Red. Conditions: for Kd: synthetic SKVILFE-flanked peptide; for fold more avid than linear TR401 and TRS311 peptides: synthetic constrained vs linear peptides.
The nature of experiment [2]: Phage direct binding to Texas Red carrier beads, Scatchard plot. The conditions noted are these: phage clone (5 pIII-fluorette copies, avidity), 3 hr. Here is the method:
(§1) These mutations may be important for increasing the overall affinity of the peptide fluorette-fluorophore interaction. We tested one of each of the phage from the secondary screens for increases in avidity (Table 3). PEG-purified TR401 phage, TRS311 phage or the amplified Ph.D.-12 phage display peptide library phage as a negative control (input 1.5×10^8-1.1×10^10 pfu with 2 to 5-fold increments) were incubated with 23.5 μl of BSA-blocked and washed Texas Red carrier beads in binding buffer (see above) in total volume 40 μl for 3 hr. Beads suspensions were centrifuged, the supernatants (unbound phage) were titrated and dissociation constants were measured via a standard linear Scatchard plot. For TR401 and TRS311 phage bound/unbound ratios were quite reliable (6.3-13.1 in the range of phage concentrations shown above). All binding experiments were performed in duplicate and titrations were performed in triplicate. […] For higher Kd, bound/unbound ratios became unreliable (=1).

The nature of experiment [3]: Binding affinity of phage clones carrying SKVILFE-flanked fluorettes. Conditions: phage clone, SKVILFE-flanked fluorette.
The nature of experiment [4]: Phage-free fluorophore dye binding in solution (PEG precipitation, filter scan). Conditions: vs unselected library phage. The text has this: FIG. 3. Phage-fluorophore dye binding. Fluorophore dye-specific OG403, OG402, RhR401 and TR401 phage were bound to Oregon Green 514, Fluorescein, Rhodamine Red and Texas Red “free” dyes, respectively (see text). The normalized particle amounts of amplified Ph.D.-12 phage display peptide library (nonspecific phage) were bound in solution with the same dyes as controls. Phage-fluorophore dye complexes were precipitated three times by PEG to remove unbound dye and spotted to a nitrocellulose filter. The filter was scanned on the Storm 840 scanner (Molecular Dynamics). The presented data is from a single scan and image enhancements were done simultaneously on the complete set of dye binding results using NIH Image 1.59 software. Specific/nonspecific signal ratios were quantified by densitometry of spot images using NIH Image 1.59 software (see Materials and Methods for details). All binding experiments shown were completed in duplicate. Densitometry was carried out prior to contrast enhancement. Brightness and contrast values were modified to 50 and 65, respectively in Adobe Photoshop. Individual elements of the figure were arranged as a composite from the same original scan from which the binding ratios were determined.
Four activated derivatives of fluorophore dyes (see above) were quenched in 0.5M Tris-HCl, pH 8.7 and used as “free” dyes. Ten μl of PEG-purified and 300-fold concentrated phage TR401, RhR401, OG402, OG403 (1.3-1.8×10^12 phage particles; calculated from optical densities of the purified phage at 260 and 280 nm) in TBS+0.05% sodium azide buffer were separately mixed with an equal volume of 20 μM solution of the corresponding free dyes in the same buffer; mixtures were adjusted by Tween-20 to 0.1% and incubated for 3 hr. Phage-fluorophore dye complexes were precipitated three times by PEG-8000 in order to remove unbound dye and dissolved in 6.6 μl of TBS+0.05% sodium azide buffer. Finally, phage-fluorophore dye complexes (1 μl of each) were spotted to nitrocellulose filter and filter was scanned on the Storm 840 scanner (Molecular Dynamics) in Blue Fluorescence/Chemifluorescence mode with 200 μ pixel resolution. To determine nonspecific binding the normalized amounts of phage particles of amplified, unselected, and PEG-purified Ph.D.-12 phage display peptide library were separately incubated with the corresponding free dyes and treated in the same conditions. All binding experiments were accomplished in duplicate. Specific/nonspecific signal ratios were quantified by densitometry of spot images using “Measure” option of NIH Image 1.59 freeware package.

Experiment [5] in a line: Phage binding to Oregon Green 514 carrier beads, plaque assay of bound phage. Conditions: for Kd: phage clone, Oregon Green 514 carrier beads. Here is the method:
as §1
(§2) Other PEG-purified phage (input 5×10^8-2.5×10^10 pfu with 2 to 5-fold increments) were bound to the respective fluorophore dye carriers essentially in the same manner as described above for Texas Red-specific phage. RhR401 and RhRS308, OG403 and OGS316, OG402 and FluS303 phage, were bound to the Rhodamine Red, Oregon Green 514 or Fluorescein carriers, respectively. Following binding the beads were quickly washed twice by 0.25 ml of TBS+0.1% Tween-20 and suspended in 10 ml TBS. 10 μl of suspension was mixed with ^−2×10^8 log-phase ER2537 cells and incubated 1 hr at 4° C. with slight shaking to allow phage adsorption. Several ten-fold dilutions of infected cells were mixed with noninfected ER2537 cells and plated in standard plaque assay (Sambrook et al., supra). All binding experiments and titrations were accomplished in duplicate. […] For all above phage pfu/particle ratio was in the range 0.4-0.5.

A short description of experiment [6]: Cross-binding of Texas Red-selected phage to the inappropriate dye carrier. Conditions: TR-4 phage on Rhodamine Red carrier, vs nonspecific phage background. The text has this:
(§3) We tested the binding specificity and excluded the possibility that the TR401 and RhR401 phage were selected against the polymer linker moiety rather than a fluorophore dye moiety of the dye carriers. The TR-4 and RhR-4 phage were cross-bound to Rhbdamine Red and Texas Red carriers, respectively. […] Thus the TR401 and RhR401 fluorettes are specific by this comparison for their respective conjugated dyes, despite the similarity of the compound core ring structures. Second, they had affinity for the corresponding conjugated fluorophore dyes rather than only a polymer linker moiety of Texas Red and Rhodamine Red carriers or other chemical features of the carriers themselves.

Experiment [7] can be described thus: Peptide-Texas Red binding in solution, excitation and emission spectra. Conditions: for changes in peak excitation or emission: concentrated peptide with 50 nM Texas Red. Here is the method: FIGS. 5A and 5B. Peptide—Texas Red binding. Excitation and emission spectra. Peptides at the noted concentrations were incubated with Texas Red (50 nM), or without, in 0.6 ml of TBS for 1 hr at room temperature (RT). Samples were scanned on a spectrofluorimeter (SPEX Fluoromax (Jobin Yvon-SPEX Instruments Co.)). Excitation and excitation/emission peak shifts for PepTR401(10 μM)/Texas Red and PepTRS311 (10 μM)/Texas Red complexes, respectively (A), were reproducible in three independent experiments. The results of a single experiment are presented.
The above test only checks for bound dye that remains fluorescent at the wavelengths tested. Binding of fluorophore dyes to specific peptides might result in changes in the fluorescence spectra of bound dye versus the spectra of free dye. Or, one might observe an increase or quenching of fluorescence. We mixed concentrated peptide with 50 nM of the corresponding dye in solution and determined the excitation and emission spectra of the resulting mixture.
We attempted with these findings to obtain an affinity measurement for the higher affinity TRS311 peptide. Peptides in different concentrations (1.3-20 μM) were incubated with Texas Red (50 nM) in 0.6 ml of TBS buffer for 1 hr at RT. Excitation and emission spectra of samples were obtained by using spectrofluorimeter SPEX Fluoromax (Jobin Yvon-SPEX Instruments Co.) and DataMax software package. Peak positions were automatically calculated by software. List mode data was saved for other analyses.

Experiment [8] in a line: Phage binding to Fluorescein carrier beads, plaque assay of bound phage. The conditions noted are these: for Kd: phage clone, Fluorescein carrier beads. On the procedure:
as §1, §2

Experiment [9] can be described thus: Phage binding to Rhodamine Red carrier beads, plaque assay of bound phage. The conditions noted are these: for Kd: phage clone, Rhodamine Red carrier beads. On the procedure: as §1, §2
Experiment [10] in a line: Dye binding to peptide-coated cobalt Sepharose beads, fluorescence microscopy. Conditions: Oregon Green 514.
Experiment in experiment [11]: as above
Conditions: 0.5 μM Texas Red in TBS, 1 hr, RT. On the procedure: FIG. 6. Texas Red-specific peptide PepTR401 (Panel A), PepTRS311 (Panel B), PepTR406 (Panel C) and nonspecific PepControl (Panel D) (see peptide sequences in Table 4) were bound via His6 tag to cobalt ion-containing Sepharose beads. The peptide coated beats were washed and incubated with 0.5 micromolar Texas Red in TBS for 1 hour at room temperature followed by several washings of beads in order to remove unbound dye. Fluorescent and nonflourescent control beads were photographed on fluorescent microscope Axiophot (Zeiss) using Rhodamine Red/Texas Red filter with the same time exposure for every sample. All binding experiments were accomplished in three parallels and results of a single experiments are shown.
Peptides were bound to cobalt ion-coated Sepharose beads and the resultant peptide-coated beads were incubated with corresponding fluorophore dyes, washed, and visualized for dye binding. The same amounts of Texas Red-specific peptides PepTR401, PepTRS311, PepTR406 as well as nonspecific peptide PepControl (see Table 4) were bound via His6 tag to the TALON Metal Affinity Resin (Clontech) in TBS buffer essentially as described by manufacturer's protocol. Beads (5 μl) were washed twice with 0.5 ml TBS to remove unbound peptide and incubated with 0.5 μM Texas Red in 40 μl of TBS buffer for 1 hr at RT. Finally, the beads were washed three times with 0.3 ml TBS to remove unbound dye. Fluorescent and nonfluorescent control beads were photographed with 10-fold magnification on fluorescent microscope Axiophot (Zeiss) using Rhodamine Red/Texas Red filter with 5″ exposure.

Experiment in experiment [12]: as above
Conditions: Fluorescein.

A short description of experiment [13]: Cross-binding of Rhodamine Red-selected phage to the inappropriate dye carrier. The conditions noted are these: RhR-4 phage on Texas Red carrier, vs nonspecific phage background.
Excerpt: as §3

The mark [14] stands for this setting: 10 μM peptide, 50 nM Texas Red, TBS, 1 hr RT.

These results are taken from patent US6747135B1, “Fluorescent dye binding peptides” (The Board of Trustees for the Leland Stanford Junior …, priority 1998, dated 2004).

Entries after “also recorded” stand apart in the source; their conditions may differ. Where only a bound is given, the exact number is not on record here.

On to “synthetic SKVILFE-flanked Texas Red-specific peptide with His6 tag (SEQ ID NO:120) (GGGSKVILFEGPAGRTIWEPKEASNHTGAPGSKVILFEGGPGHHHHHH) [TRP501 peptide]”, for which, in [1], the Kd is ~200 nM; the “fold more avid than linear TR401 and TRS311 peptides” value is “≈ 8 fold”. With KPVQYWTQMFYT [TRS311], the Kd in experiment [2] came out at 0.09 nM.

RWTWEPISE [TRP512]: the Kd in [3] is 0.025 nM. As for HGWDYYWDWTAW [OG403], in experiment [4] (free Oregon Green 514, 3 hr), the “phage binding of free fluorophore dye in solution” value is “specifically bound”. The Kd in experiment [5] was 6.4 nM. On to KHVQYWTQMFYS [TR401], for which the “binding specificity, cross-binding to inappropriate dye carrier” value in [6] was “specific”. For the same substance, the “phage binding of free fluorophore dye in solution” value in experiment [4] (free Texas Red, 3 hr) is “specifically bound”. In experiment [2], the Kd amounted to 0.27 nM. As for RTIWEPKEASNHT [TRP501], in experiment [3], the Kd came to 0.08 nM. The same measure, in the same setting: with GTLSATRPYGRQW [TRP541] the figure was > 5 nM; with EPMARPWERKQDR [TRP527], > 5 nM. Consider HEWEYYWDWTAW [OGS316], for which the “Affinity increase (fold)” value in experiment [5] (mutant fluorette phage vs parental OG403 phage) is 2.7 fold. The same substance displayed a Kd in [5] of 2.4 nM. For the substance “ASGSGASGSAGSGGGSAETVGGGHHHHHH [control peptide, reference compound]”, the “changes in peak excitation or emission” value in experiment [7] was “No detectable changes”. As for YPNDFEWWEYYF [OG402], the “phage binding of free fluorophore dye in solution” value in experiment [4] (free Fluorescein, 3 hr) is “specifically bound”. The Kd in [8] was determined as 17.4 nM. On to IPHRPMYWTPVF [RhRS308], for which the “Affinity increase (fold)” value in experiment [9] (mutant fluorette phage vs parental RhR401 phage) was “not even marginally improved; also recorded: no increase”. Also, the Kd in [9] came to 21.5 nM. Take “KPVOYWTOMFYTGGGSAETVGGGHHHHHH (KPVQYWTQMFYTGGGSAETVGGGHHHHHH; fluorette) [PepTRS311]”: the “dye binding to peptide-coated beads” value is recorded as “bound to neither Oregon Green 514 nor Fluorescein” in experiment [10], “significant binding” in experiment [11] and “bound to neither Oregon Green 514 nor Fluorescein” in [12]. Further, in experiment [7] (setting [14]), the peak emission shift is 1.4 nm. The peak excitation shift result in [7] (setting [14]) was “~+2.8 nm”. Further, the Kd in [7] (calculated roughly from peak shifts, peptide 1.3-20 μM, Texas Red 50 nM, read-out: affinity of the peptide for the fluorophore) was 100 to 500 nM. For the same substance, the “change in peak excitation position on reducing peptide concentration” value in experiment [7] (peptide from 10 μM to 1.3 μM, Texas Red 50 nM) is given as “reduced slightly, but not completely”. Turning to GNQKCLQHNRCST [TRP518], in experiment [3], the Kd is > 5 nM. “synthetic SKVILFE-flanked Texas Red-specific peptide with His6 tag (SEQ ID NO:121) (GGGSKVILFEGPAGRWTWEPISEGAPGSKVILFEGGPGHHHHHH) [TRP512 peptide]”: in experiment [1], the Kd was ~10 nM; the “fold more avid than linear TR401 and TRS311 peptides” value is on record as “≈ 160 fold”.

On to “DFLOWKLAROKPGGGSAETVGGGHHHHHH (DFLQWKLARQKPGGGSAETVGGGHHHHHH; fluorette) [PepTR406]”, for which the “dye binding to peptide-coated beads” value in experiment [11] was “did not bind”. For the same substance, the “changes in peak excitation or emission” value in experiment [7] was “No detectable changes”. As to IPHPPMYWTRVF [RhR401], the “binding specificity, cross-binding to inappropriate dye carrier” value in experiment [13] is given as “specific”. Further, the “phage binding of free fluorophore dye in solution” value in experiment [4] (free Rhodamine Red, 3 hr) is “specifically bound”. The same substance returned a Kd in experiment [9] of 23 nM. With WSKMGHTVT [TRP505], in experiment [3], the Kd is > 5 nM. With YPNEFDWWDYYY [FluS303], the “Affinity increase (fold)” value in experiment [8] (mutant fluorette phage vs parental OG402 phage) turned out to be 6.5 fold. The substance further yielded a Kd in experiment [8] of 2.7 nM. With SQTWSFPEH [TRP526], the Kd in experiment [3] is > 5 nM.
